The values that follow come from patent US9332753B2, “Plant volatiles based on R-curcumene” (Keygene N.V., priority 2009, dated 2016).

SMILES strings stand for the structures. Entries after “also recorded” stand apart in the source; their conditions may differ.

For data set [1], the system named is adult whiteflies B. tabaci. Conditions: cited from earlier work.
Data set [2] relates to B. tabaci. Description: Correlation of identified headspace volatiles with whitefly repellence ranking (stepwise linear regression, MANOVA). The arrangement: species or system Bemisia tabaci biotype Q. Conditions: for Effect (semiochemical associated to B. tabaci repellence or attraction): first Table 5; for association (B. tabaci repellence or attraction): second Table 5; for Effect on insects: volatile related to whitefly repellence or attraction (Table 1). The source says: In a large experiment (see Example 2), the headspace of 16 wild tomato accessions and 5 cultivated tomato lines were sampled and analyzed (6 repeats). In total 51 compounds were identified to be present in the captured headspace. Furthermore, the level of repellency/attraction of each of the 21 tomato accessions was established in free choice bioassays with B. tabaci (biotype Q), using a ranking scale of 1-7 (1=highest repellency to 7=lowest repellency). Next, the identified volatile compounds were correlated to the repellency/attraction score of each tomato accession through a linear regression analysis.
The headspace of 16 wild tomatoes and 5 cultivated tomatoes (Table 4) was collected. Undisturbed 3-weeks old tomato plants were transferred to 40-L desiccators. The headspace was sampled during 24 h including a 16 h light period, by trapping of the volatile components as described above. […] Each accession was sampled 6 times.
In a statistical analysis the correlation between the identified components of the tomato headspace and the ranking of whitefly repellence measured in the bioassays was made. Using two approaches, a stepwise-linear regression analysis and a MANOVA, 8 volatiles were identified to be correlated to whitefly repellence, whereas 24 other volatile compounds were eliminated as non-relevant for repellency or attraction.

In data set [3] the test system is B. tabaci. The data set can be described thus: Free choice bioassay with pure volatiles or mixtures added to one of four cv Moneymaker plants. Format: in vivo, Bemisia tabaci biotype Q (Almeria population). As to conditions: for effect on whitefly behaviour: one of four Moneymaker plants treated; for behavioural effect (significance of effect on B. tabaci behaviour in choice-assays): significance stars, key not given. The source says: For bioassays with headspace (total headspace or single compounds) four potted tomato plants (S. esculentum cv Moneymaker) were placed in a square setup at a distance of 50 cm. One hundred and fifty adult whiteflies were released and recorded as described above. To test the effect of selected headspace components on repellence, synthetic standards (FLUKA) were applied to either 10 filter-papers discs (Whatman, 25 mm diameter) or 10 rubber septa (Sigma Aldrich, Z167258). Prior to loading, the septa were placed in CH2Cl2 for 24 h and air-dried for 3 days (Heath et al., 1986). The paper discs or septa containing volatiles were attached to one of the four plants with metal wire. The position of the treated tomato was randomised. Five minutes after placing the volatiles on the plant, whiteflies were released. For each component at least 8 replications were carried out. Treatments were administered in a setup in which compounds were always added to the same plant in comparison to 3 plants with empty carriers. Prior to each assay with volatiles, the experiment was done with the 4 plants in an untreated setup, in the same position to allow comparison in the same background.
Host preference with and without manipulated headspace by B. tabaci was explored in free choice assays. In each setup four cultivated tomatoes (cv. Moneymaker) were tested as described earlier. For the bioassays with volatiles rubber septa (Sigma Aldrich Z167258) were extracted with CH2Cl2 for 24 hours and dried to the air for 3 days. The desired blend of volatiles was added to the rubber septa in 100 μl hexane. Bioassays with pure components, or mixtures of pure components were carried out as described above.
To positively confirm the correlation between the 7 candidate components and B. tabaci behaviour, host preference was assayed in bioassays with pure components. The desired (blend of) pure volatile chemicals were added, as described above, to the Moneymaker background on filter paper cards. […] The percentage of whiteflies visiting the treated plant decreased with 44% on average (p<0.001) (FIG. 2a) while the untreated plants harboured increased numbers of B. tabaci. […] To assess whether the sum of these three components would yield a greater effect than p-cymene alone, a mixture of p-cymene: gamma-terpinene: beta-myrcene in the same ratio as found in accession LA2560 (1:12:3) was tested. […] Finally, the sesquiterpenes were tested, tomato-derived 7-epi-zingiberene as well as its oxidation product R-curcumene, and zingiberene and its oxidation product S-crucume.

A further data set has as its system B. tabaci antennae. The data set can be described thus: Electroantennography (EAG). The arrangement: species or system Bemisia tabaci. As for the experimental part: Electroantennography (EAG) was employed to confirm the responsiveness of the atennae to 10-3 dilution in paraffin oil (Uvasol, Merck) of the chemicals described. Small pieces of filter paper (2 cm2; Schleicher & Schuell, Dassel, Germany) were soaked with 100 μl of the standard dilution or paraffin oil only (control). The filter paper was inserted into a 10-ml glass syringe (Poulten & Graf GmbH, Wertheim, Germany). A reproducible stimulus was supplied by puffing 5 ml of air over the antenna (Schutz et al., 1999). The EAG response was recorded for each standard dilution. The response to paraffin oil was considered as a negative control and was subtracted from all the reported EAG measurements.

The test system of data set [4] is fourth instar larvae of Colorado potato beetle. As to conditions: cited from earlier work.
The nature of data set [5]: Conversion on exposure to air. Format: physicochemical.
For data set [6], the system named is pests of cut flowers (e.g. B. tabaci). Conditions: fumigant, 10-20 mg/l, after 2-4 hours of exposure; cited from earlier work.
The mark [7] stands for this setting: n = 5, mean response and scatter, 10^-3 dilution in paraffin oil.
Where [8] appears, read: responses of B. tabaci antennae.

`CCCCCCCCCCCC(C)=O` [2-tridecanone]: the toxic effect result in data set [1] is “toxic effect”.

As for `CC(C)=CCC[C@@H](C)c1ccc(C)cc1` [R-curcumene], in the data set on B. tabaci [2], the “correlation with repellence or attraction of tomato accessions” value (“correlation” for short) is on record as “appear to be responsible for rendering the S. habrochaites (former typicum) more unattractive”, the “Effect (semiochemical associated to B. tabaci repellence or attraction)” value was “repellence”, the “association (B. tabaci repellence or attraction)” value (from here on “association”) is given as “repellence” and the Effect on insects result is “Repellent”. Further, the “effect on whitefly behaviour” value in the data set with B. tabaci [3] is given as “clear repellent effect; also recorded: repelled”. Besides, the “antennal recognition / sensitivity” value with B. tabaci antennae (electroantennography) is recorded as “highest sensitivity”. Further, the antennal response in the data set with B. tabaci antennae (setting [7]) is on record as 50 (8-148) μV. The antennal response in the data set with B. tabaci antennae (setting [8]) is recorded as 5.0 mV.

Consider `C=CC(=C)CCC=C(C)C` [beta-myrcene], for which, in the data set on B. tabaci [2], the “correlation” value is “repellent compounds linked to S. pennelli”, the “Effect (semiochemical associated to B. tabaci repellence or attraction)” value was “repellence”, the “association” value is “repellence” and the Effect on insects result is reported as “Repellent”. For the same compound, in the data set with B. tabaci [3], the “effect on whitefly behaviour” value is reported as “did not influence whitefly behaviour” and the “behavioural effect (significance of effect on B. tabaci behaviour in choice-assays)” value is reported as “ns”. Moreover, the antennal response entry in the data set on B. tabaci antennae (setting [8]) is listed as “ns”.

For the compound `Cc1ccc(C(C)C)cc1` [para-cymene], in the data set on B. tabaci [2], the “correlation” value is recorded as “repellent compounds linked to S. pennelli”, the “Effect (semiochemical associated to B. tabaci repellence or attraction)” value is “repellence”, the “association” value was “repellence” and the Effect on insects result was “Repellent”. Further, in the data set with B. tabaci [3] (on average, vs same plant in untreated setup, p-cymene 10 μg, mixture ratio 1:12:3), the “decrease of percentage of whiteflies visiting the treated plant” value is recorded as 44%. The antennal response in the data set with B. tabaci antennae (setting [8]) was determined as 2.4 mV.

On to `CC(C)=CCC[C@H](C)c1ccc(C)cc1` [S-curcumene], for which, in the data set on B. tabaci [2], the “Effect (semiochemical associated to B. tabaci repellence or attraction)” value was “repellence”, the “association” value is listed as “repellence” and the Effect on insects entry is on record as “Repellent”. Besides, the “effect on whitefly behaviour” value in the data set with B. tabaci [3] is reported as “did not appear to repel”. The antennal response in the data set on B. tabaci antennae (setting [7]) is 27 (3-60) μV. In the data set with B. tabaci antennae (setting [8]), this compound registered an antennal response of 2.7 mV.

Take `CC1=CC2C(CC1)C2(C)C` (stereo not shown) [2-carene]: in the data set on B. tabaci [2], the “correlation” value is listed as “significantly correlated to the more attractive cultivated S. lycopersicum plants”, the “Effect (semiochemical associated to B. tabaci repellence or attraction)” value was “attraction”, the “association” value was “attraction” and the Effect on insects entry is recorded as “Attractant”. The “behavioural effect (significance of effect on B. tabaci behaviour in choice-assays)” value with B. tabaci [3] was “ns”. In the data set on B. tabaci antennae (setting [8]), this compound registered an antennal response of 3.9 mV.

As for `CCCCCCCCCC(C)=O` [2-undecanone], the toxic effect result in data set [4] is on record as “toxic effect”.

Consider `CC1=CC=C(C(C)C)CC1` [Alpha-terpinene], for which, in the data set on B. tabaci [2], the “correlation” value is recorded as “repellent compounds linked to S. pennelli”, the “association” value is “repellence” and the Effect on insects entry is “Repellent”. In the data set with B. tabaci antennae (setting [8]), this compound gave an antennal response of 4.1 mV.

For `CC1=CCC(C(C)C)C=C1` (stereo not drawn) [Alpha-phellandrene], in the data set on B. tabaci [2], the “correlation” value was “repellent compounds linked to S. pennelli”, the “association” value is recorded as “repellence” and the Effect on insects entry is “Repellent”. The compound further displayed an antennal response in the data set with B. tabaci antennae (setting [8]) of 2.2 mV.

On to `CC(C)=CCC[C@H](C)[C@@H]1C=CC(C)=CC1` [zingiberene], for which, in the data set with B. tabaci [2], the “Effect (semiochemical associated to B. tabaci repellence or attraction)” value is “repellence”, the “association” value is given as “repellence” and the Effect on insects result is “Repellent”. Moreover, in the data set with B. tabaci [3], the “effect on whitefly behaviour” value is “did not appear to be repelled”. The antennal response in the data set with B. tabaci antennae (setting [7]) is given as 21 (5-30) μV. Also, in the data set with B. tabaci antennae (setting [8]), the antennal response was determined as 2.1 mV. The “stability when exposed to air” value in data set [5] was “rapidly converted to R- and S-curcumene respectively”.

Turning to `CC12CCC(CC1)C(C)(C)O2` [Cineole], in data set [6], the mortality entry is given as “caused mortality”.

For the compound `C=C1C=CC(C(C)C)CC1` (stereo not drawn) [beta-phellandrene], in the data set on B. tabaci [2], the “correlation” value was “significantly correlated to the more attractive cultivated S. lycopersicum plants”, the “Effect (semiochemical associated to B. tabaci repellence or attraction)” value is given as “attraction”, the “association” value is on record as “attraction” and the Effect on insects result was “Attractant”. In the data set on B. tabaci [3], the “effect on whitefly behaviour” value is “decreased tomato attractiveness significantly” and the “behavioural effect (significance of effect on B. tabaci behaviour in choice-assays)” value was “ns”. This compound also registered an antennal response in the data set on B. tabaci antennae (setting [8]) of 2.5 mV.

For `CC(C)=CCC[C@@H](C)[C@@H]1C=CC(C)=CC1` [7-epi-zingiberene], in the data set with B. tabaci [2], the “correlation” value is given as “appear to be responsible for rendering the S. habrochaites (former typicum) more unattractive”, the “Effect (semiochemical associated to B. tabaci repellence or attraction)” value was “repellence”, the “association” value is “repellence” and the Effect on insects entry is “Repellent”. In the data set with B. tabaci [3], the “effect on whitefly behaviour” value is listed as “clear repellent effect; also recorded: very effective in reducing the number of whitefly visitations”. Besides, the antennal response in the data set on B. tabaci antennae (setting [7]) is reported as 23 (0-53) μV. Further, in the data set on B. tabaci antennae (setting [8]), the antennal response stood at 2.3 mV. In data set [5], the “stability when exposed to air” value was “rapidly converted to R- and S-curcumene respectively”.

For `C=CCc1ccc2c(c1)OCO2` [safrole], in data set [6], the mortality entry is “caused mortality”.

Take `CC1=CCC(C(C)C)=CC1` [gamma-terpinene]: in the data set with B. tabaci [2], the “correlation” value is “repellent compounds linked to S. pennelli”, the “Effect (semiochemical associated to B. tabaci repellence or attraction)” value was “repellence”, the “association” value is on record as “repellence” and the Effect on insects result was “Repellent”. Further, in the data set with B. tabaci [3], the “behavioural effect (significance of effect on B. tabaci behaviour in choice-assays)” value is reported as “ns”. Moreover, the antennal response in the data set with B. tabaci antennae (setting [8]) was 1.9 mV.

As for `C=C(C)[C@H]1CC=C(C)CC1` [limonene], in the data set with B. tabaci [2], the “correlation” value is given as “significantly correlated to the more attractive cultivated S. lycopersicum plants”, the “Effect (semiochemical associated to B. tabaci repellence or attraction)” value was “attraction”, the “association” value is given as “attraction” and the Effect on insects entry was “Attractant”. Moreover, in the data set on B. tabaci [3], the “behavioural effect (significance of effect on B. tabaci behaviour in choice-assays)” value was “ns”. This compound registered an antennal response in the data set on B. tabaci antennae (setting [8]) of 3.5 mV.
